Experimental data as given in ChEMBL document CHEMBL4602703, “Lead Optimization of a Pyrrole-Based Dihydroorotate Dehydrogenase Inhibitor Series for the Treatment of Malaria” (J Med Chem, 2020).
Values after ≈ are worked out from the molar mass of the structure shown.

Experiments:
Plasmodium falciparum [1] = tested on: Plasmodium falciparum
[2] = Apparent half life in Sprague-Dawley rat at 3 mg/kg, po administered via gavage measured up to 24 hrs by LC-MS analysis; type: ADME, organism-based; details: in vivo
[3] = molecular target: Voltage-gated inwardly rectifying potassium channel KCNH2 (Homo sapiens, UniProt Q12809); assay: Inhibition of human ERG by IonWorks patch clamp electrophysiology assay
Cytochrome P450 2C9 [4] = molecular target: T1, Cytochrome P450 2C9 (Homo sapiens, UniProt P11712); assay: Inhibition of CYP2C9 in human liver microsomes using tolbutamide as substrate measured for 10 to 30 mins in presence of NADPH regenerating system by UPLC-MS analysis; type: ADME
[5] = Protein binding in DMEM medium containing 10% fetal calf serum by LC-MS analysis based ultracentrifugation assay; type: ADME, cell-free, Bos taurus; details: cattle, DMEM medium containing 10% fetal calf serum; read-out: PB (converted)
Plasmodium falciparum [6] = assay: animal or person; details: 3D70087/N9, in Mus musculus, po, 96 h
Albumin = Albumin (Homo sapiens, UniProt P02768); assay: Binding affinity to albumin (unknown origin) by chromatographic method; type: ADME; details: albumin, read-out: PB (converted)
[7] = Apparent half life in Sprague-Dawley rat at […], iv administered as infusion for 10 mins and measured up to 24 hrs by LC-MS analysis; type: ADME, organism-based; details: in vivo, read-out: t1/2(app) (converted)
Cytochrome P450 1A2 [8] = molecular target: T2, Cytochrome P450 1A2 (Homo sapiens, UniProt P05177); assay: Inhibition of CYP1A2 in human liver microsomes using phenacetin as substrate measured for 10 to 30 mins in presence of NADPH regenerating system by UPLC-MS analysis; type: ADME
T2 sequence (P05177 whole entry): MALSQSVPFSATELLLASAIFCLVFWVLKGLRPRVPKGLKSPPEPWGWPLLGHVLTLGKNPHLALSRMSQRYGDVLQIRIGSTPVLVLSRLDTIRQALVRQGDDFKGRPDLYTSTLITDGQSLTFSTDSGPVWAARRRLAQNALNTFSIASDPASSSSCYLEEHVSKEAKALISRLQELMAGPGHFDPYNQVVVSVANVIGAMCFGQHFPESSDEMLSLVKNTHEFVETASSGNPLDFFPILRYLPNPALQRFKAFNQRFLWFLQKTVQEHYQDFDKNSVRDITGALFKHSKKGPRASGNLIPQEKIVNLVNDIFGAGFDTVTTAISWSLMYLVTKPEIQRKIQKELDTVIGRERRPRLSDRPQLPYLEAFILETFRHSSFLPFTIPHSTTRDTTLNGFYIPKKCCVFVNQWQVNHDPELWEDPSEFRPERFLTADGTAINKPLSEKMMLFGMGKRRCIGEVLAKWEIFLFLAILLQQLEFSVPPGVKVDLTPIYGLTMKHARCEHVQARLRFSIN

[9] = Volume of drug distribution at steady state in Swiss mouse at […], iv administered as bolus dose measured up to 24 hrs by UPLC-MS analysis; type: ADME, organism-based; details: in vivo
[10] = Toxicity in Plasmodium falciparum 3D70087/N9 infected NOD-SCID IL2Rgamma null mouse assessed as death at 10 mg/kg, po administered once daily for 4 days measured 24 hrs post dose; type: organism-based; details: in vivo
[11] = Cmax in NOD-SCID IL2Rgamma null mouse blood infected with Plasmodium falciparum 3D70087/N9 at 50 mg/kg, po qd for 4 days starting from 3 days post infection and measured after 24 hrs post dose by LC-MS/MS analysis
Cytochrome P450 2C9 [12] = molecular target: T1, Cytochrome P450 2C9; assay: Time-dependent inhibition of CYP2C9 in human liver microsomes using tolbutamide as substrate in presence of NADPH regenerating system by UPLC-MS analysis; type: ADME
[13] = Protein binding in human liver microsomes by LC-MS analysis based ultracentrifugation assay; type: ADME, Microsome; details: read-out: PB (converted)
Cytochrome P450 2C19 = Cytochrome P450 2C19 (Homo sapiens, UniProt P33261); assay: Time-dependent inhibition of CYP2C19 in human liver microsomes using (S)-mephenytoin as substrate in presence of NADPH regenerating system by UPLC-MS analysis; type: ADME
HepG2 = assay: Cytotoxicity against human HepG2 cells assessed as reduction in cell viability; type: cell-based
Cytochrome P450 2D6 = Cytochrome P450 2D6 (Homo sapiens, UniProt P10635); assay: Time-dependent inhibition of CYP2D6 in human liver microsomes using dextromethorphan as substrate in absence of NADPH regenerating system by UPLC-MS analysis; type: ADME
[14] = Protein binding in rat plasma by LC-MS analysis based ultracentrifugation assay; type: ADME, cell-free; details: read-out: PPB (converted)
[15] = AUC (0 to infinity) in Sprague-Dawley rat at 3 mg/kg, po administered via gavage measured up to 24 hrs by LC-MS analysis; type: ADME, organism-based; parameters: dose 3 mg/kg, route oral, time infinity; details: in vivo
[16] = Cmax in Sprague-Dawley rat at 33 mg/kg, po administered via gavage measured up to 24 hrs by LC-MS analysis; type: ADME, organism-based; parameters: dose 33 mg/kg, route oral; details: in vivo
[17] = Cmax in Swiss mouse at 18.3 mg/kg, po via gavage measured up to 24 hrs by UPLC-MS analysis; type: ADME, organism-based; parameters: dose 18.3 mg/kg, route oral; details: in vivo
[18] = Intrinsic clearance in human liver microsomes assessed as per mg protein; type: ADME, Microsome
[19] = AUC (0 to infinity) in Swiss mouse blood at 18.3 mg/kg, po via gavage measured up to 24 hrs by UPLC-MS analysis; type: ADME, organism-based; parameters: dose 18.3 mg/kg, route oral, time infinity; details: in vivo
Cytochrome P450 1A2 [20] = molecular target: T2, Cytochrome P450 1A2; assay: Time-dependent inhibition of CYP1A2 in human liver microsomes using phenacetin as substrate in absence of NADPH regenerating system by UPLC-MS analysis; type: ADME
[21] = Cmax in Swiss mouse blood at 10.5 mg/kg, po via gavage measured up to 24 hrs by UPLC-MS analysis; details: in vivo
[22] = AUC (0 to infinity) in Swiss mouse at […], iv administered as bolus dose measured up to 24 hrs by UPLC-MS analysis; type: ADME, organism-based; parameters: dose 2.8 mg/kg, route intravenous, time infinity; details: in vivo
[23] = simulated gi fluid, pH 5.8
[24] = AUC (0 to infinity) in Sprague-Dawley rat at 33 mg/kg, po administered via gavage measured up to 24 hrs by LC-MS analysis; type: ADME, organism-based; parameters: dose 33 mg/kg, time infinity, route oral; details: in vivo
[25] = Intrinsic clearance in liver microsomes assessed as per mg protein; details: read-out: CLH
Cytochrome P450 1A2 [26] = molecular target: T2, Cytochrome P450 1A2; assay: Time-dependent inhibition of CYP1A2 in human liver microsomes using phenacetin as substrate in presence of NADPH regenerating system by UPLC-MS analysis; type: ADME
[27] = Oral bioavailability in Swiss mouse at 50 mg/kg dosed via gavage measured up to 24 hrs by UPLC-MS analysis; type: ADME, organism-based; details: in vivo
[28] = Protein binding in mouse plasma by LC-MS analysis based ultracentrifugation assay; type: ADME, cell-free; details: read-out: PPB (converted)
[29] = Apparent half life in Swiss mouse at […], iv administered as bolus dose measured up to 24 hrs by UPLC-MS analysis; type: ADME, organism-based; details: in vivo
[30] = Cmax in Swiss mouse blood at 18.3 mg/kg, po via gavage measured up to 24 hrs by UPLC-MS analysis; type: ADME, organism-based; parameters: dose 18.3 mg/kg, route oral; details: in vivo

T1 sequence (P11712 whole entry): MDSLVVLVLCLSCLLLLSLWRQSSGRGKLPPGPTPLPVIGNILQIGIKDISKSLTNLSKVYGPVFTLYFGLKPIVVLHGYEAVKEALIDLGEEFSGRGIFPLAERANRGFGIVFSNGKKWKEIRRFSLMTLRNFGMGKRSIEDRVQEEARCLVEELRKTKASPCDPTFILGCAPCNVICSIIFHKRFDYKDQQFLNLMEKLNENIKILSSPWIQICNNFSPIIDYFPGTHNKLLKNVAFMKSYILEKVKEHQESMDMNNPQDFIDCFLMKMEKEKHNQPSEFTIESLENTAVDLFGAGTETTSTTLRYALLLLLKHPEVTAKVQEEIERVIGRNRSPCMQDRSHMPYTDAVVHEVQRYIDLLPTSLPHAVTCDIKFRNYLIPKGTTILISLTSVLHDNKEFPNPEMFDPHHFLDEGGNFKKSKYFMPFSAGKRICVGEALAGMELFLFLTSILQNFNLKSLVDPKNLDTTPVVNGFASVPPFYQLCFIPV
Voltage-gated inwardly rectifying potassium channel KCNH2, sequence (Q12809 whole entry): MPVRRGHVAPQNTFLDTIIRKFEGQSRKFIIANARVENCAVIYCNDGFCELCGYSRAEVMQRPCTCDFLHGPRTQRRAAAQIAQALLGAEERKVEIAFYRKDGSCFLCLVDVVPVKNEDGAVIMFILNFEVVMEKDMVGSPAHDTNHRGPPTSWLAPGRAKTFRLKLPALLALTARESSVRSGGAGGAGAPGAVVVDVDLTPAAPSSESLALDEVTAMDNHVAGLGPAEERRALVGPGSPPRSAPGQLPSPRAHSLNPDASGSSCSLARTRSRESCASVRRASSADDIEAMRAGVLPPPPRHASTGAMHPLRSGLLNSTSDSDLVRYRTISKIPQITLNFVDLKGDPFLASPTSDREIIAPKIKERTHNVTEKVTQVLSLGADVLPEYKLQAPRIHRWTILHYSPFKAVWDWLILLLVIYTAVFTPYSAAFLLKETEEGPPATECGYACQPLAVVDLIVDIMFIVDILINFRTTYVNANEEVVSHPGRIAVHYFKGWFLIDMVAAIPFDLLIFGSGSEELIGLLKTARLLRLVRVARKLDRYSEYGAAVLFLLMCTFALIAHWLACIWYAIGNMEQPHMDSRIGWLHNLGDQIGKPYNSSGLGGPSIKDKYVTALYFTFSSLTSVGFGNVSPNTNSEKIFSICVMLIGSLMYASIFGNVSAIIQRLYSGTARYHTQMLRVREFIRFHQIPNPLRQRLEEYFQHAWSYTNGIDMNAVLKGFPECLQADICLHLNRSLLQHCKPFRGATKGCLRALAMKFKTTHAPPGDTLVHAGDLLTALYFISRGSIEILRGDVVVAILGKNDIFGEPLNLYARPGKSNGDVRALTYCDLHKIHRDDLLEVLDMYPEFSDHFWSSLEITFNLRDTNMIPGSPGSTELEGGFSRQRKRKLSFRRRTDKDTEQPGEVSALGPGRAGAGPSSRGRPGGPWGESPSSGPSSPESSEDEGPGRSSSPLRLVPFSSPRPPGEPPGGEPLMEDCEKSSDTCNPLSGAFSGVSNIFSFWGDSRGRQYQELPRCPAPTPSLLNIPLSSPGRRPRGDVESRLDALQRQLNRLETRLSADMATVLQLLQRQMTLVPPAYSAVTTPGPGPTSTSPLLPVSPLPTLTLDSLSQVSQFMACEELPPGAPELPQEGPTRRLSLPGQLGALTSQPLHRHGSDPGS
Cytochrome P450 2D6, sequence (P10635 whole entry): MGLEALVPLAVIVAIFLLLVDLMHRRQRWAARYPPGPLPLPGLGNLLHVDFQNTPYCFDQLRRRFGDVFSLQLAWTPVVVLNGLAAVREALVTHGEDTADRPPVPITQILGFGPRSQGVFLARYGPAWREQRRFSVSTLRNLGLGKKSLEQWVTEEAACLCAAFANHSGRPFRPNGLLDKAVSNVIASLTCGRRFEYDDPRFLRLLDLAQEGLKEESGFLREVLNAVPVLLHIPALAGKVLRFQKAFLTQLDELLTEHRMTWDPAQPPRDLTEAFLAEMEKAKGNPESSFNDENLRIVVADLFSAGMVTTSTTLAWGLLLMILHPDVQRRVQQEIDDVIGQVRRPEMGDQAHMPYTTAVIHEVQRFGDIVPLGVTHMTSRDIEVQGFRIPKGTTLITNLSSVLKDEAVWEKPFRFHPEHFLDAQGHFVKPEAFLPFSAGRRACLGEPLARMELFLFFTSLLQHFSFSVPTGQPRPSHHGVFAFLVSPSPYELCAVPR
Cytochrome P450 2C19, sequence (P33261 whole entry): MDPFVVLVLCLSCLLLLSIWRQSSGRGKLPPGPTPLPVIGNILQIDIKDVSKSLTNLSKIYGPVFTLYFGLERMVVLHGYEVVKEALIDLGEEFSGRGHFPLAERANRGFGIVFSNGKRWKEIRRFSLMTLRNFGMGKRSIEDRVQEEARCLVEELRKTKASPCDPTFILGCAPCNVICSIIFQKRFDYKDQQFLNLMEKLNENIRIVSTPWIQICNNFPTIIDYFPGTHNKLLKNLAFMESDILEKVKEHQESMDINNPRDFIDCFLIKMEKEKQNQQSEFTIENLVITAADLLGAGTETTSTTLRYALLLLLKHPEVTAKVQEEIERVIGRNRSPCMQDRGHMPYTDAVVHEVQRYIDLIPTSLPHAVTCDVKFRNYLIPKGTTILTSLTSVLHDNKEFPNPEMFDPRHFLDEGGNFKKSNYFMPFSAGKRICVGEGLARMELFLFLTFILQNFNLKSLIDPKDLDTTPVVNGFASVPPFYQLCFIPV
Albumin, sequence (P02768 whole entry, the tested form may be a part): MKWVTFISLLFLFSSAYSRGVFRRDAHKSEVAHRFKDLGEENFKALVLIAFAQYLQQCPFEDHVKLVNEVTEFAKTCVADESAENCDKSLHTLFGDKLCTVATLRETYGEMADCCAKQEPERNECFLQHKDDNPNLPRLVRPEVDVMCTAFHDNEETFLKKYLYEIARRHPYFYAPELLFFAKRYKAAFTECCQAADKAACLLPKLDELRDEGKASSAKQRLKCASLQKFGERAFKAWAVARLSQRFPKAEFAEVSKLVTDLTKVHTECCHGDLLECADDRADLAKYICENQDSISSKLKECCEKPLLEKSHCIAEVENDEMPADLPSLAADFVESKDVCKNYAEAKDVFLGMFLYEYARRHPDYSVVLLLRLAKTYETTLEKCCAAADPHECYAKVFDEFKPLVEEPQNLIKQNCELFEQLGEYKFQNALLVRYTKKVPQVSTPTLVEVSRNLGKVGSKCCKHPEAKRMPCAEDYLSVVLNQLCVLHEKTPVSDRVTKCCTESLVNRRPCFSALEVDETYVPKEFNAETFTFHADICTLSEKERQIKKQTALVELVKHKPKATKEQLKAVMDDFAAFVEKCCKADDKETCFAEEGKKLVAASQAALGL

Cc1c(Cc2ccc(C(F)(F)F)nc2)c[nH]c1C(=O)NC1CC1
fEC50 (Plasmodium falciparum [1]): 0.0077 µM
t1/2(app) [2]: 3.9 h
EC50 [3]: > 33 µM
IC50 (Cytochrome P450 2C9 [4]): > 20 µM
fraction unbound [5]: 0.685
ED90 (Plasmodium falciparum [6]): 50 mg/kg/day
fraction unbound (Albumin): 0.238
half-life [7]: 14.6 h
IC50 (Cytochrome P450 1A2 [8]): > 20 µM
Vdss [9]: 1.2 L/kg
Activity [10]: Toxic
Cmax [11]: 7.81 µM
TDI (Cytochrome P450 2C9 [12]): Not Active
fraction unbound [13]: 0.701
TDI (Cytochrome P450 2C19): Not Active
CC50 (HepG2): > 50 µM
TDI (Cytochrome P450 2D6): Active
fraction unbound [14]: 0.118
AUC [15]: 5.1 µM·h
Cmax [16]: 27 µM
Cmax [17]: 8.4 µM
microsomal CLint [18]: 10 µL/min/mg
AUC [19]: 44.5 µM·h
TDI (Cytochrome P450 1A2 [20]): Not Active
Cmax [21]: 3.7 µM
AUC [22]: 5.6 µM·h
solubility [23]: 115 µg/mL (≈ 356 µM)
AUC [24]: 204 µM·h
microsomal CLint [25]: 24 µL/min/mg
TDI (Cytochrome P450 1A2 [26]): Not Active
F [27]: > 100%
fraction unbound [28]: 0.111
t1/2(app) [29]: 2.8 h
Cmax [30]: 6.7 µM
